Reference: ChEMBL document CHEMBL1139642, “Design, synthesis, and evaluation of dioxane-based antiviral agents targeted against the Sindbis virus capsid protein” (Bioorg Med Chem Lett, 2005)

Key:
[1] = test system: Sindbis virus; assay: Effective concentration resulting in a 50% reduction in virus production in BHK cells; assay type: functional, organism-based
[2] = Cytotoxic concentration for 50% growth inhibition of uninfected BHK cells; assay type: cell-based, Mesocricetus auratus; details: hamster

Row | Structure (SMILES) | EC50 [1] | CC50 [2]
1 | C(C[C@@H]1COCCO1)C[C@@H]1COCCO1 | 40 µM | > 1000 µM
2 | c1ccc(CCCC[C@@H]2COCCO2)cc1 | > 100 µM | 600 µM
3 | O=C(C[C@@H]1COCCO1)C[C@@H]1COCCO1 | > 100 µM | > 1000 µM
4 | OC[C@@H]1COCCO1 | 1 µM | > 1000 µM
